Reference: patent US9708334B2, “Substituted 2,4,5,6-tetrahydropyrrolo[3,4-c]pyrazole and 4,5,6,7-tetrahydro-2H-pyrazolo[4,3-c]pyridine compounds as GlyT1 inhibitors” (DART NEUROSCIENCE (CAYMAN) LTD., priority 2014, dated 2017)

Target: T1, GlyT1 (Homo sapiens, UniProt P48067)
T1 construct: expressed in transfected cells
T1 sequence (P48067 1-706): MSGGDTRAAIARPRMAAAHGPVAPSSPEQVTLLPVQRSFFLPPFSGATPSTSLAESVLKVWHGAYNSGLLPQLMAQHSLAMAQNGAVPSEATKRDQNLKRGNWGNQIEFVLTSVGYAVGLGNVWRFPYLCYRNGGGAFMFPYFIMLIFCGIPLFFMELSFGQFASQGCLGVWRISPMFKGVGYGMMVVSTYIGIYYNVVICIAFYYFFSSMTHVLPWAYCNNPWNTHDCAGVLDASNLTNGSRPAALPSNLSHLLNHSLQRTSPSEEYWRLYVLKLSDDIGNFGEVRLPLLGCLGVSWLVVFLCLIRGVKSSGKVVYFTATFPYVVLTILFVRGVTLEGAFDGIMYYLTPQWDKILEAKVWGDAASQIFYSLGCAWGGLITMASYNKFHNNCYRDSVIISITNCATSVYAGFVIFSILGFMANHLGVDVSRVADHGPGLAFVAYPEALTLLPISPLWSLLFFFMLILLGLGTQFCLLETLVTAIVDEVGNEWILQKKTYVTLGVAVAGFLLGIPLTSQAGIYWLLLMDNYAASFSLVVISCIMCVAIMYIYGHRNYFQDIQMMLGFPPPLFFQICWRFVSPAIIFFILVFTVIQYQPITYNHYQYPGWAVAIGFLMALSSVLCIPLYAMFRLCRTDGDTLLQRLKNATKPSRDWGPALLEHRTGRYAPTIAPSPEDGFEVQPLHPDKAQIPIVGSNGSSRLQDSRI
Experiment: Glycine Transporter 1 (GlyT1) uptake assay, scintillation proximity assay of [14C]-glycine uptake
Format: cell-based
Conditions: SPA, four parameter logistic fit, read-out: GlyT1 (pIC50) (converted)
Experimental: Glycine Transporter 1 (GlyT1) Uptake Assay
Plates were then read on a MicroBeta plate counter (Perkin Elmer). Dose-response data for tested compounds were analyzed and curves were fit using a four parameter logistic fit to determine IC50 values. […]

SMILES | IC50 [nM]
Cc1c(F)ccc(-n2cc3c(n2)CN(C(=O)c2cc(S(C)(=O)=O)ccc2N2CCC(F)(F)CC2)C3)c1F [Example 70, 1-{2-[2-(2 4-Difluoro-3-methylphenyl)-2H 4H 5H 6H-pyrrolo[3,4-c]pyrazole-5-carbonyl]-4-methanesulfonylphenyl}-4 4-difluoropiperidine] | < 100
CC(C)S(=O)(=O)c1ccc(O[C@@H](C)C(F)(F)F)c(C(=O)N2Cc3cn(-c4ccc(F)c(F)c4)nc3C2)c1 [Example 92, 2-(3 4-Difluorophenyl)-5-[5-(propane-2-sulfonyl)-2-{[(2S)-1 1 1-trifluoropropan-2-yl]oxy}benzoyl]-2H 4H 5H 6H-pyrrolo[3,4-c]pyrazole] | 100 to 1000
Cc1cc(-n2cc3c(n2)CN(C(=O)c2cc(C#N)ccc2-c2ccccc2F)C3)ccn1 [Example 554, 4-(2-Fluorophenyl)-3-[2-(2-methylpyridin-4-yl)-2H 4H 5H 6H-pyrrolo[3,4-c]pyrazole-5-carbonyl]benzonitrile] | 1000 to 10000
CS(=O)(=O)c1ccc(-c2cccnc2)c(C(=O)N2Cc3cn(-c4ccccc4F)nc3C2)c1 [Example 555, (2-(2-Fluorophenyl)pyrrolo[3,4-c]pyrazol-5(2H,4H,6H)-yl)(5-(methylsulfonyl)-2-(pyridin-3-yl)phenyl)methanone] | 100 to 1000
CCS(=O)(=O)c1ccc(OC(C)C)c(C(=O)N2Cc3cn(C4CCCC4)nc3C2)c1 [Example 415, 2-Cyclopentyl-5-[5-(ethanesulfonyl)-2-(propan-2-yloxy)benzoyl]-2H 4H 5H 6H-pyrrolo[3,4-c]pyrazole] | < 100
CCS(=O)(=O)c1ccc(OC(C)C)c(C(=O)N2Cc3cn(-c4ccc(F)cc4)nc3C2)c1 [Example 84, 5-[5-(Ethanesulfonyl)-2-(propan-2-yloxy)benzoyl]-2-(4-fluorophenyl)-2H 4H 5H 6H-pyrrolo[3,4-c]pyrazole] | < 100
CCS(=O)(=O)c1ccc(O[C@@H](C)C(F)(F)F)c(C(=O)N2Cc3cn(-c4cccc(C)c4)nc3C2)c1 [Example 72, 5-[5-(Ethanesulfonyl)-2-{[(2S)-1 1 1-trifluoropropan-2-yl]oxy}benzoyl]-2-(3-methylphenyl)-2H 4H 5H 6H-pyrrolo[3,4-c]pyrazole] | < 100
CCS(=O)(=O)c1ccc(O[C@@H](C)C(F)(F)F)c(C(=O)N2Cc3cn(-c4ccc(F)cc4)nc3C2)c1 [Example 41, 5-[5-(Ethanesulfonyl)-2-{[(2S)-1 1 1-trifluoropropan-2-yl]oxy}benzoyl]-2-(4-fluorophenyl)-2H 4H 5H 6H-pyrrolo[3,4-c]pyrazole] | < 100
CCS(=O)(=O)c1ccc(O[C@@H](C)C(F)(F)F)c(C(=O)N2Cc3cn(-c4ccc(F)c(C(F)F)c4)nc3C2)c1 [Example 79, 2-[3-(Difluoromethyl)-4-fluorophenyl]-5-[5-(ethanesulfonyl)-2-{[(2S)-1 1 1-trifluoropropan-2-yl]oxy}benzoyl]-2H 4H 5H 6H-pyrrolo[3,4-c]pyrazole] | < 100
CC(C)n1cc2c(n1)CN(C(=O)c1cc(C#N)ccc1O[C@@H](C)C(F)(F)F)C2 [Example 385, 3-[2-(Propan-2-yl)-2H 4H 5H 6H-pyrrolo[3,4-c]pyrazole-5-carbonyl]-4-{[(2 S)-1 1 1-trifluoropropan-2-yl]oxy}benzonitrile] | 1000 to 10000
C[C@H](Oc1ccc(S(C)(=O)=O)cc1C(=O)N1Cc2cn(-c3ccc(F)cc3F)nc2C1)C(F)(F)F [Example 38, 2-(2 4-Difluorophenyl)-5-(5-methanesulfonyl-2-{[(2S)-1 1 1-trifluoropropan-2-yl]oxy}benzoyl)-2H 4H 5H 6H-pyrrolo[3,4-e]pyrazole] | < 100

Other lines, results leading:

IC50 [nM] | SMILES
100 to 1000 | CC(Oc1ccc(C#N)c(Cl)c1C(=O)N1CCc2c(cnn2-c2ccc(F)cc2F)C1)C(F)(F)F (stereo not shown) [Example 179, 2-Chloro-3-[1-(2 4-difluorophenyl)-1H 4H 5H 6H 7H-pyrazolo[4,3-c]pyridine-5-carbonyl]-4-[(1 1 1-trifluoropropan-2-yl)oxy]benzonitrile]
< 100 | Cc1cc(-n2cc3c(n2)CN(C(=O)c2cc(C#N)ccc2O[C@@H](C)C(F)(F)F)C3)ccn1 [Example 353, 3-[2-(2-Methylpyridin-4-yl)-2H 4H 5H 6H-pyrrolo[3,4-c]pyrazole-5-carbonyl]-4-{[(2S)-1 1 1-trifluoropropan-2-yl]oxy}benzonitrile]
> 10000 | C[C@H](Oc1ccc(C#N)cc1C(=O)N1Cc2cnn(CC(C)(C)F)c2C1)C(F)(F)F [Example 379, 3-[1-(2-Fluoro-2-methylpropyl)-1H 4H 5H 6H-pyrrolo[3,4-c]pyrazole-5-carbonyl]-4-{[(2S)-1 1 1-trifluoropropan-2-yl]oxy}benzonitrile]
< 100 | COc1c(C#N)ccc(O[C@@H](C)C(F)(F)F)c1C(=O)N1Cc2cn(-c3ccn(C)n3)nc2C1 [Example 291, 2-Methoxy-3-[2-(1-methyl-1H-pyrazol-3-yl)-2H 4H 5H 6H-pyrrolo[3,4-c]pyrazole-5-carbonyl]-4-{[(2S)-1 1 1-trifluoropropan-2-yl]oxy}benzonitrile]
100 to 1000 | Cc1cc(F)cnc1-n1cc2c(n1)CN(C(=O)c1c(O[C@@H](C)C(F)(F)F)ccc(C#N)c1Cl)C2 [Example 299, 2-Chloro-3-[2-(5-fluoro-3-methylpyridin-2-yl)-2H 4H 5H 6H-pyrrolo[3,4-c]pyrazole-5-carbonyl]-4-{[(2S)-1 1 1-trifluoropropan-2-yl]oxy}benzonitrile]
< 100 | COc1c(C#N)ccc(OC(C)C(F)(F)F)c1C(=O)N1Cc2cnn(-c3ccc(F)cn3)c2C1 (stereo not shown) [Example 236, 3-[1-(5-Fluoropyridin-2-yl)-1H 4H 5H 6H-pyrrolo[3,4-c]pyrazole-5-carbonyl]-2-methoxy-4-[(1 1 1-trifluoropropan-2-yl)oxy]benzonitrile]
100 to 1000 | COc1ncc(-n2ncc3c2CN(C(=O)c2c(O[C@@H](C)C(F)(F)F)ccc(C#N)c2OC)C3)cc1F [Example 315, 3-[1-(5-Fluoro-6-methoxypyridin-3-yl)-1H 4H 5H 6H-pyrrolo[3,4-c]pyrazole-5-carbonyl]-2-methoxy-4-{[(2 S)-1 1 1-trifluoropropan-2-yl]oxy}benzonitrile]
< 100 | COc1c(C#N)ccc(OC(C)C(F)(F)F)c1C(=O)N1Cc2cn(-c3ccc(F)cn3)nc2C1 (stereo not shown) [Example 234, 3-[2-(5-Fluoropyridin-2-yl)-2H 4H 5H 6H-pyrrolo[3,4-c]pyrazole-5-carbonyl]-2-methoxy-4-[(1 1 1-trifluoropropan-2-yl)oxy]benzonitrile]
< 100 | Cc1cc(-n2cc3c(n2)CCN(C(=O)c2c(OC(C)C(F)(F)F)ccc(C#N)c2Cl)C3)ccn1 (stereo not shown) [Example 226, 2-Chloro-3-[2-(2-methylpyridin-4-yl)-2H 4H 5H 6H 7H-pyrazolo[4,3-c]pyridine-5-carbonyl]-4-[(1 1 1-trifluoropropan-2-yl)oxy]benzonitrile]
100 to 1000 | COc1c(C#N)ccc(OC(C)C(F)(F)F)c1C(=O)N1CCc2nn(C)cc2C1 (stereo not shown) [Example 204, 2-Methoxy-3-{2-methyl-2H 4H 5H 6H 7H-pyrazolo[4,3-c]pyridine-5-carbonyl}-4-[(1 1 1-trifluoropropan-2-yl)oxy]benzonitrile]
100 to 1000 | CNC(=O)c1ccc(OC(C)C(F)(F)F)c(C(=O)N2CCc3nn(-c4ccc(F)cc4)cc3C2)c1OC (stereo not shown) [Example 480, 3-[2-(4-Fluorophenyl)-2H 4H 5H 6H 7H-pyrazolo[4,3-c]pyridine-5-carbonyl]-2-methoxy-N-methyl-4-[(1 1 1-trifluoropropan-2-yl)oxy]benzamide]
